Molecules are shown by their SMILES. Where two headings read alike, the source gives them in different places. Some results are limits rather than exact numbers.

Results on 13 molecules are retold here after patent US7696203B2, “DNA-PK inhibitors” (Kudos Pharmaceuticals Limited, priority 2005, dated 2010).

One data set concerns the target Mammalian DNA-PK (Homo sapiens, UniProt P78527). Put plainly: DNA-PK inhibition assay (ELISA of p53 Ser15 phosphorylation of GST-p53N66). It is filed as biochemical, human (isolated from HeLa cell nuclear extract). As to the method:
In order to assess the inhibitory action of the compounds against DNA-PK in vitro, the following assay was used to determine IC50 values.
To the assay mix, varying concentrations of inhibitor (in DMSO at a final concentration of 1%) were added. After 10 minutes of incubation, ATP was added to give a final concentration of 50 μM along with a 30 mer double stranded DNA oligonucleotide (final concentration of 0.5 ng/ml) to initiate the reaction. After 1 hour with shaking, 150 μl of phosphate buffered saline (PBS) was added to the reaction and 5 μl then transferred to a 96 well opaque white plate containing 45 μl of PBS per well where the GSTp53N66 substrate was allowed to bind to the wells for 1 hour. To detect the phosphorylation event on the serine 15 residue of p53 elicited by DNA-PK a p53 phosphoserine-15 antibody (Cell Signaling Technology) was used in a basic ELISA procedure. An anti-rabbit HRP conjugated secondary antibody (Pierce) was then employed in the ELISA before the addition of chemiluminescence reagent (NEN Renaissance) to detect the signal as measured by chemiluminescent counting via a TopCount NXT (Packard).
The enzyme activity for each compound is then calculated using the following equation: […]
These are determined over a range of different concentrations, normally from 10 μM down to 0.001 μM. Such IC50 values are used as comparative values to identify increased compound potencies.

The next data set deals with cells. As to conditions: ionising radiation, literature; cited from earlier work.
Another data set concerns HeLa cells. In words: Survival Enhancement Ratio (clonogenic survival after 2 Gray irradiation). In kind it is cell-based, human. As to conditions: inhibitor at 100 nM. As to the method:
Survival Enhancement Ratio
The Survival Enhancement Ratio (SER) is a ratio of the enhancement of cell kill elicited by the DNA-PK inhibitor after 2 Grays of irradiation compared to unirradiated control cells. […] Radiation was delivered by a Faxitron 43855D machine at a dose rate of 1 Gy pre minute The SER at 2 Gray irradiation was calculated from the formula:
The degree of cell killing was monitored by a standard clonogenic survival assay. Briefly, tissue culture treated 6-well plates were seeded with HeLa cells at an appropriate concentration to give 100-200 colonies per well and returned to the incubator in order to allow the cells to attach. Four hours later, compound or vehicle control was added to the cells. The cells were then incubated for 1 hour in the presence of inhibitor prior to irradiation at 2 Gray using a Faxitron 43855D cabinet X-ray machine. The cells were then incubated for a further 16 hours before the media was replaced with fresh media in the absence of DNA-PK inhibitor. After 8 days, colonies formed were fixed and stained with Giemsa (Sigma, Poole, UK) and scored using an automated colony counter (Oxford Optronics Ltd, Oxford, UK). The data was calculated as described above.

Setting [1] is: DNA-PK from HeLa nuclear extract, 50 μM ATP, 30° C., read-out: IC50 (concentration at which 50% of the enzyme activity is inhibited), DNA-PK inhibition.

As for `Nc1ccc(-c2cccn3c(=O)cc(N4CCOCC4)nc23)c2sc3ccccc3c12` [Compound 23, 9-(1-Amino-dibenzothiophen-4-yl)-2-morpholin-4-yl-pyrido[2,1-a]pyrimidin-4-one], at Mammalian DNA-PK (setting [1]), the IC50 is below 100 nM. In the case of `Nc1ccc(-c2cccc3c(=O)cc(N4CCOCC4)[nH]c23)c2sc3ccccc3c12` [Compound 25, 8-(1-amino-dibenzothiophen-4-yl)-2-morpholin-4-yl-1H-quinolin-4-one], on Mammalian DNA-PK (setting [1]), the IC50 was below 100 nM. Molecule `O=c1cc(N2CCOCC2)[nH]c2c(-c3ccc([N+](=O)[O-])c4c3oc3ccccc34)cccc12` [Compound 28, 2-Morpholin-4-yl-8-(1-nitro-dibenzofuran-4-yl)-1H-quinolin-4-one] registered a melting point of 247 °C. Regarding `O=c1cc(N2CCOCC2)nc2c(-c3ccc(O)c4c3sc3ccccc34)cccn12` [Compound 31, 9-(1-Hydroxy-dibenzothiophen-4-yl)-2-morpholin-4-yl-pyrido[2,1-a]pyrimidin-4-one], on Mammalian DNA-PK (setting [1]), the IC50 was below 100 nM.

Take `O=c1cc(N2CCOCC2)nc2c(-c3cccc4c3oc3ccccc34)cccn12` [Compound 34b]: at Mammalian DNA-PK, the IC50 was below 100 nM. Consider `O=C(CN1CCOCC1)Nc1ccc(-c2cccc3c(=O)cc(N4CCOCC4)[nH]c23)c2sc3ccccc3c12` [Compound 38b], for which, on Mammalian DNA-PK (setting [1]), the IC50 was below 100 nM.

On to `COCCN1CCN(CC(=O)Nc2ccc(-c3cccc4c(=O)cc(N5CCOCC5)[nH]c34)c3oc4ccccc4c23)CC1` [Compound 42b], for which the IC50 on Mammalian DNA-PK (setting [1]) was below 100 nM.

Consider `C[C@@H]1CN(CC(=O)Nc2ccc(-c3cccc4c(=O)cc(N5CCOCC5)[nH]c34)c3oc4ccccc4c23)C[C@H](C)O1` [Compound 42d], for which the IC50 on Mammalian DNA-PK (setting [1]) is below 100 nM. For `O=C(CN1CCN(CCO)CC1)Nc1ccc(-c2cccc3c(=O)cc(N4CCOCC4)[nH]c23)c2oc3ccccc3c12` [Compound 42f], the IC50 on Mammalian DNA-PK (setting [1]) was below 100 nM.

`C[C@@H]1CN(CCC(=O)Nc2ccc(-c3cccc4c(=O)cc(N5CCOCC5)oc34)c3oc4ccccc4c23)C[C@H](C)O1` [Compound 45a]: the IC50 at Mammalian DNA-PK (setting [1]) was below 100 nM. As for `O=C(CCN1CCOCC1)Nc1ccc(-c2cccc3c(=O)cc(N4CCOCC4)oc23)c2oc3ccccc3c12` [Compound 45c], on Mammalian DNA-PK (setting [1]), the IC50 is below 100 nM. For `O=c1cc(N2CCOCC2)oc2c(-c3ccccc3)cccc12` [LY294002], in the data set with cells, the “sensitisation of cells to the effects of IR” value is listed as “weakly sensitise cells”. At Mammalian DNA-PK, `O=c1cc(N2CCOCC2)oc2c(-c3cccc4c3sc3ccccc34)cccc12` [reference compound] showed an IC50 of 10 to 12 nM. The “SER (Survival Enhancement Ratio)” value with HeLa cells is 1.3.
